From ChEMBL document CHEMBL3046456, “Anti-angiogenic/proliferative behavior of a 4-aryl-4H-chromene on blood vessels endothelial cells: A possible evidence on dual anti-tumor activity” (Med Chem Res, 2011)
Active and inactive are the calls of the source. No cut-off for these calls is given here.

Columns and labels:
[1] = system: HUVEC; assay: Antiproliferative activity against Homo sapiens (human) HUVEC cells at 3.11 to 124 uM after 3 days by cell counting analysis; type: functional, cell-based
[2] = system: HUVEC; assay: Cytotoxicity against Homo sapiens (human) HUVEC cells after 48 hr by LDH assay; type: cell-based
[3] = system: HUVEC; assay: Cytotoxicity against Homo sapiens (human) HUVEC cells after 48 hr by trypan blue assay; type: cell-based
[4] = system: HUVEC; assay: Antiangiogenic activity against Homo sapiens (human) HUVEC cells assessed as inhibition of capillary tube formation after 3 days by microscopic analysis; type: functional, cell-based
[5] = system: HUVEC; assay: Antiproliferative activity against Homo sapiens (human) HUVEC cells at 1 ug/ml after 3 days by cell counting analysis; type: functional, cell-based
[6] = system: HUVEC; assay: Antiproliferative activity against Homo sapiens (human) HUVEC cells at <10 ug/ml after 3 days by cell counting analysis; type: functional, cell-based
[7] = system: HUVEC; assay: Antiproliferative activity against Homo sapiens (human) HUVEC cells after 3 days by cell counting analysis; type: functional, cell-based
[8] = system: HUVEC; assay: Cytotoxicity against Homo sapiens (human) HUVEC cells up to 40 ug/ml after 48 hr by LDH assay; type: cell-based
[9] = system: HUVEC; assay: Cytotoxicity against Homo sapiens (human) HUVEC cells up to 40 ug/ml after 48 hr by trypan blue assay; type: cell-based
[10] = molecular target: 72 kDa type IV collagenase (Homo sapiens) (UniProt P08253); assay: Inhibition of MMP2 (unknown origin) at 37.32 uM after 16 hr by gelatin zymographic analysis
72 kDa type IV collagenase (Homo sapiens), sequence (P08253 110-660 limits assumed): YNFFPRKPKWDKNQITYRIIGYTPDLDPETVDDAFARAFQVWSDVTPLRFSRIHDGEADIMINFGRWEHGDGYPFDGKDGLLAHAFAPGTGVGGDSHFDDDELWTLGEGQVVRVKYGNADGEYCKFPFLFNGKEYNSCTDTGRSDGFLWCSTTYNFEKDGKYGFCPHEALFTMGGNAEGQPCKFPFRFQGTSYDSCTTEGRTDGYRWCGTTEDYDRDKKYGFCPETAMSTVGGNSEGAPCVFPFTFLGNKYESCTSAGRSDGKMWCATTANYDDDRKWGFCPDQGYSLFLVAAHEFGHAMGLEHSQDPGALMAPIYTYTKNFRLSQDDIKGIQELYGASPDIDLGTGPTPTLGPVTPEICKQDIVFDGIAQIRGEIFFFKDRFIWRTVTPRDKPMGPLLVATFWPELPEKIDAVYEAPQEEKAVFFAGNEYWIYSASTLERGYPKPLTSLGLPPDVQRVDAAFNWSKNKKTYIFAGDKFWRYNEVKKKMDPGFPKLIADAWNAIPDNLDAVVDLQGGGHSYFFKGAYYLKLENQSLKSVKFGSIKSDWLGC

[11] = molecular target: Matrix metalloproteinase-9 (Homo sapiens) (UniProt P14780); assay: Inhibition of MMP9 (unknown origin) at 24.88 uM after 16 hr by gelatin zymographic analysis
Matrix metalloproteinase-9 (Homo sapiens), sequence (P14780 whole entry): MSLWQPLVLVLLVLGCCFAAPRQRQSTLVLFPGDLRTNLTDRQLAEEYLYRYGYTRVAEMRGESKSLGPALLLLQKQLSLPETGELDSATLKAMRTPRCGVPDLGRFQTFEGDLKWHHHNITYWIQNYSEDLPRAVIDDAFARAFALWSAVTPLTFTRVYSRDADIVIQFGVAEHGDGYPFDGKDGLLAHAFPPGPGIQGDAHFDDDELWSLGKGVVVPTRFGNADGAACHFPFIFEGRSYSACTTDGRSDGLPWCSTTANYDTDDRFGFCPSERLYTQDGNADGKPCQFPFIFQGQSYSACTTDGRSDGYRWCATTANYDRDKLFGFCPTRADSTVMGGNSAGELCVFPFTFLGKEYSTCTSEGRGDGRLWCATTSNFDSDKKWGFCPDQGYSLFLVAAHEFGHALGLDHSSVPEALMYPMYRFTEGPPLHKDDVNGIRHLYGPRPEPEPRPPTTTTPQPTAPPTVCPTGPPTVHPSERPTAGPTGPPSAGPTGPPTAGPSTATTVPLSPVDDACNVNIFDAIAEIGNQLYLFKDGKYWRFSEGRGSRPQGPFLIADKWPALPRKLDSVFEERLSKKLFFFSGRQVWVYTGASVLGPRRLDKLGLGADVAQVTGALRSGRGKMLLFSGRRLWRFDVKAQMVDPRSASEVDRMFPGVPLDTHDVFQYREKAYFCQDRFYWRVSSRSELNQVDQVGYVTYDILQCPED

[12] = molecular target: Matrix metalloproteinase-9 (Homo sapiens) (UniProt P14780); assay: Inhibition of MMP9 (unknown origin) after 16 hr by gelatin zymographic analysis
[13] = system: HUVEC; assay: Antiangiogenic activity against Homo sapiens (human) HUVEC cells assessed as inhibition of capillary tube formation at 1 ug/ml after 3 days by microscopic analysis; type: functional, cell-based

SMILES	Activity [1]	Activity [2]	Activity [3]	other results
COc1ccc(/C=C2\COc3cc(OC)ccc3C2=O)cc1	inactive	Dose-dependent effect	Dose-dependent effect	
COc1ccc2c(c1)OC/C(=C\c1ccc(C(F)(F)F)cc1)C2=O	inactive	Dose-dependent effect	Dose-dependent effect	
CCCOc1ccc2c(c1)OC/C(=C\c1ccc(O)c(O)c1)C2=O	inactive	Dose-dependent effect	Dose-dependent effect	
CN(C)c1ccc2c(c1)OC(N)=C(C#N)C2c1cccc([N+](=O)[O-])c1 (centres undefined)	inactive	Dose-dependent effect	Dose-dependent effect	
COc1ccc2c(c1)OC/C(=C\c1cc(OC)c(O)c(OC)c1)C2=O	inactive	Dose-dependent effect	Dose-dependent effect	
COc1ccc2c(c1)OC/C(=C\c1ccc(OC)c(OC)c1)C2=O	inactive	Dose-dependent effect	Dose-dependent effect	
COc1ccc2c(c1)OC/C(=C\c1ccc(O)cc1)C2=O	inactive	Dose-dependent effect	Dose-dependent effect	
COc1ccc2c(c1)OC/C(=C\c1ccccc1OC)C2=O	inactive	Dose-dependent effect	Dose-dependent effect	
COc1ccc2c(c1)OC/C(=C\c1ccc(Cl)cc1)C2=O	inactive	Dose-dependent effect	Dose-dependent effect	
COc1ccc2c(c1)OC/C(=C\c1ccc(Cl)cc1Cl)C2=O	inactive	Dose-dependent effect	Dose-dependent effect	
CN(C)c1ccc2c(c1)OC(N)=C(C#N)C2c1cccc(C(F)(F)F)c1 (centres undefined)	inactive	Dose-dependent effect	Dose-dependent effect	
COc1ccccc1C1C(C#N)=C(N)Oc2cc(N(C)C)ccc21 (centres undefined)				inhibition [4]: Dose-dependent effect; Activity [5]: Active; Activity [6]: Active; Activity [7]: Dose-dependent effect; Activity [8]: Non-toxic; Activity [9]: Non-toxic; inhibition [10]: Active; inhibition [11]: Active; inhibition [12]: Dose-dependent effect; inhibition [13]: Active
COc1ccc2c(c1)OC/C(=C\c1ccc(O)c(O)c1)C2=O	inactive	Dose-dependent effect	Dose-dependent effect	
COc1ccc2c(c1)OC/C(=C\c1ccc(F)cc1)C2=O	inactive	Dose-dependent effect	Dose-dependent effect	
